# Experimental data reported in patent US20040167028A1, “Method of introducing a substance into plant tissue” (HAMAMATSU PHOTONICS K.K., priority 2002, published 2004).
# Where two headings read alike, the source gives them in different places.
# Tested on: tomato plant
# Excerpt: According to the method of the invention, information relating to the amount, speed and site of introduction of the substance introduced into the plant tissue can be obtained, for example, using a positron imaging apparatus. With a positron imaging apparatus, information on the measuring target is obtained by introducing a substance labeled with positron-emitting RI as a tracer into a living body, and measuring the pair of gamma-rays produced as the positrons emitted from the RI-labeled substance are annihilated against electrons in the substance (see, for example, Japanese Patent Application Laid-Open No. 9-33658).
# FIG. 5 is a view showing the basic construction of a positron imaging apparatus. The apparatus shown in this drawing comprises a pair of two-dimensional radiation detectors 60 and 70. The two-dimensional radiation detectors 60 and 70 in turn comprise scintillator arrays 61,71 each composed of a plurality of scintillators, and photodetectors 62,72 for detection of scintillation light generated by incidence of the gamma-rays on the scintillator arrays 61,71. The radiation detectors 60,70 are housed in separate detector cases 65,75 with the radiation incidence planes of the scintillator arrays 61,71 facing each other.
# In this construction, a pair of gamma-rays emitted from a measuring target B (a plant, according to the invention) placed on a prescribed measuring surface S between the radiation detectors 60,70 are each detected by the radiation detectors 60,70. The detection signals are outputted through connected circuit systems 63,73 having amplifier circuits, etc. for amplification of the detection signals. The outputted amplification signals are inputted into a signal processing circuit 80, and the signal processing circuit 80 identifies coincident electron/positron annihilation events and calculates the position of the annihilation, based on the detection signals from the two radiation detectors 60,70.
# Tomato (Merryroad variety) approximately 4 weeks after sprouting was used as the test plant. After removing a leaf at the end of the 6th side branch from the bottom of the main stem, the end was cut in the water for use as the absorption site (conductive tissue-exposed side branch) FIG. 6 is a schematic view showing the arrangement of the main stem 3 and side branches 2 of the tomato plant used in this experiment. The absorption site was located at the end of the side branch 2 extending toward the left in FIG. 6.
# FIG. 7 is an integrated image obtained from the positron imaging apparatus, with the integrated image positioned to correspond to the positions of the main stem and side branch in FIG. 6.
# Next, all of the leaves on the substance-absorbed side branch 2 of the tomato plant used in Comparative Example 1 were removed. […] FIG. 8 is the integrated image obtained from the positron imaging apparatus, with the integrated image positioned to correspond to the positions of the, main stem and side branch in FIG. 6.
# Using a different tomato plant from that used in Example 1 (the same variety but a different plant), a leaf at the end of the 6th side branch from the bottom of the main stem was removed in the same manner as Example 1, and the end was cut in the water for use as the absorption site in the same manner as Comparative Example 1. The other leaves on that side branch were shaded by covering them with aluminum foil to inhibit transpiration. FIG. 10 is a schematic view showing the arrangement of the main stem 3 and side branches 2 of the tomato plant used in this experiment. The absorption site was located at the end of the upper side branch 2 of the side branches 2 extending toward the left in FIG. 10.
compound,measurement,setting,value
O=[N+]([O-])O [^13N-labeled nitric acid],migration of the substance in the main stem (integrated image),"Comparative Example 1, side branch with leaves, no inhibition of transpiration, FIG. 7",almost all of the substance migrated downward in the main stem
same,introduction of the substance into the side branch (integrated image),"Comparative Example 2, leaves unshaded, no inhibition of transpiration, FIG. 12",very little of the substance had been introduced
same,amount of substance introduction (RI accumulation / nitric acid absorption at the node),"Example 1, all leaves of the absorbing side branch removed, versus Comparative Example 1 with leaves, observed for 1 hour, FIG. 9",over twice
same,migration of the substance in the main stem (integrated image),"Example 1, leaves of the side branch removed, FIG. 8",Upward migration was also confirmed in the main stem
same,amount of substance introduction (RI accumulation at the node),"Example 2, leaves of the absorbing side branch shaded with aluminum foil, versus Comparative Example 2 unshaded, FIG. 13",over twice
same,migration of the substance in the main stem (integrated image),"Example 2, leaves shaded to inhibit transpiration, FIG. 11",upward migration occurred in the main stem
same,introduction of the substance into the plant (integrated image),"Example 4, sieve tubes of the side branch eliminated by heating at about 100° C., vessels alone, FIG. 16",the substance had been introduced into the plant
